Assay results: US9949976B2, “Kinase inhibitor and use thereof” (Sihuan Pharmaceutical Holdings Group Ltd., priority 2013, dated 2018)

What was measured:
[1] = system: MDA-MB-435S human melanoma cell; assay: BrdU cell proliferation assay (Cell Signaling kit); assay type: cell-based; conditions: 72 h, read-out: In vitro cell-inhibiting activity IC50 MDA-MB-435S
Description: Experimental method: cell proliferation assay was carried out by BrdU method (BrdU cell proliferation assay kit, Cell Signaling Technology Company).
Preparation of gradient dilution solutions of test compound: the stock solution containing 10 mM test compound was subjected to 4-fold stepwise dilution with DMSO to prepare solutions containing 2.5 mM, 625 μM, 156 μM, 39 μM, 9.8 μM, and 2.5 μM test compound, respectively. 2 μL DMSO-diluted compound was added to 198 μL culture medium containing 10% FBS to prepare […] test compound, wherein the maximum concentration of the test compound was 100 μM, the concentration of DMSO was 1%, and there were 7 concentration gradients.
MDA-MB-435S medium: L-15+10% FBS+0.01 mg/mL insulin
(1) Cells grown to 80% confluence (in exponential growth phase) were digested with pancreatin, and centrifuged to collect the cells. MDA-MB-435S and U87MG cells were re-suspended in FBS-free culture medium, counted, and seeded to a 96-well plate; MDA-MB-435S cells were seeded at 3000 cells/well/81 μL; U87MG cells were seeded at 4000 cells/well/81 MCF-7 cells were resuspended in culture medium containing 1% FBS, and counted and seeded to a 96-well plate, at 4000 cell/well/82 μL. The plates were placed in a cell incubator at 37° C. […]
(9) To each well, stop solution (100 μL) was added, and OD value at 450 nm was measured by ELISA instrument […]

[2] = target: CDK6/D3 (Homo sapiens, UniProt Q00534); assay: In vitro enzyme-inhibiting activity, Caliper Mobility Shift method; assay type: biochemical; conditions: read-out: CDK enzyme-inhibiting activity IC50 CDK6/D3
Description: Measurement of activity for inhibiting CDK4/6 kinase by Caliper Mobility Shift method.
50 mL stock solution containing 1000 mM HEPES (pH 7.5), and 50 μL stock solution containing 30% Brij-35, were added to 949.95 mL ultra pure water, and the resultant mixture was mixed homogeneously.
25 mL stock solution containing 4% Coating Reagent #3 (provided with the 12-sipper chip used in Caliper device), 50 mL stock solution containing 1000 mM HEPES (pH 7.5), 50 mL stock solution containing 0.5 M EDTA, and 0.25 mL stock solution containing 30% Brij-35, were added to 374.75 mL ultra pure water, and the resultant mixture was mixed homogeneously.
18 μL CDK6/D3 enzyme solution, and 14 μL stock solution containing 1M DTT were added to 2768 μL 1-fold CDK6 kinase buffer, and the resultant mixture was mixed homogeneously.
23 μL stock solution containing 100 mM ATP, 75 μL stock solution containing 1M MgCl2, and 75 μL FAM-tagged polypeptide 8, were added to 2827 μL 1-fold CDK6 kinase buffer, and the resultant mixture was mixed homogeneously.
DMSO solution containing 10 mM test compound was diluted with DMSO to a solution containing 50 μM test compound (which was used as a stock solution).
1) 5 μL 5-fold test compound solution and 10 μL 2.5-fold kinase solution were added to the corresponding wells in a 384-well plate, and incubated at room temperature for 10 min.
2) To the corresponding wells, 10 μL 2.5-fold polypeptide solution was added to start the enzymatic reaction, and incubation was performed at 28° C. for 5 h.
To the corresponding wells, 25 μL stop solution was added to stop the reaction.
The data was read by Caliper device, the inhibition rate was calculated by the following formula, and curve fitting was carried out by GraphPad5.0 software to get IC50 value. Inhibition rate=(maximal value−sample value)/(maximal value−minimal value)×100, wherein, maximal value: positive control without addition of test compound; minimal value: negative control without addition of enzyme.

[3] = system: MV-4-11 leukemia cell; assay: BrdU cell proliferation assay (PerkinElme kit); assay type: cell-based; conditions: Homo sapiens, MV4-11, 48 h; read-out: In vitro cell-inhibiting activity IC50 MV-4-11
Description: Experimental method: cell proliferation assay was carried out by BrdU method (BrdU cell proliferation assay kit, PerkinElme Company).
Preparation of gradient dilution solutions of test compound: the stock solution containing 5 mM test compound was diluted by DMSO to prepare a 2 mM solution, then was subjected to 4-fold stepwise dilution to 9 concentration gradients.
MV-4-11 medium: IMDM+10% FBS
(1) Cells grown to exponential growth phase were digested with pancreatin, and centrifuged to collect the cells. The adherent cells were re-suspended in the corresponding culture medium, counted, and seeded to a 96-well plate; H358 cells and SW780 cells were seeded at 4000 cells/well/100 μL; PC3 cells were seeded at 1500 cells/well/100 μL; H441 cells were seeded at 6000 cells/well/100 μL. The plates were placed in a cell incubator at 37° C. After the cells adhered to the wall, the medium was replaced by serum-free medium. The suspended cells MV-4-11 and JeKo-1 were re-suspended with serum-free medium, counted, seeded to a 96-well plate by 10000 cells/well/100 μL and placed in a cell incubator overnight at 37° C. with 5% CO2. […]
(6) To each well, 200 μL of DELFIA Inducer was added and incubated for 15 min at room temperature. Value of fluorescence (Flu) was measured by ELISA instrument […]

Chain of CDK6/D3 (Q00534 whole entry): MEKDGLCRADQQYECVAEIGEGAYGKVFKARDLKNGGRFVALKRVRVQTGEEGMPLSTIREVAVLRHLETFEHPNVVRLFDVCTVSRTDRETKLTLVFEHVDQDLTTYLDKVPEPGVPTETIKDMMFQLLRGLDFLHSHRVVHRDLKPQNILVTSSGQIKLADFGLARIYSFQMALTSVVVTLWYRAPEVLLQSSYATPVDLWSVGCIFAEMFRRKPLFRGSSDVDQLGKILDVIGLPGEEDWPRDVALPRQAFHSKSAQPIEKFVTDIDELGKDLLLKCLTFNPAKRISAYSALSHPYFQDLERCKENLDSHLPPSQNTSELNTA
Chain of CDK6/D3 (P30281 whole entry partner): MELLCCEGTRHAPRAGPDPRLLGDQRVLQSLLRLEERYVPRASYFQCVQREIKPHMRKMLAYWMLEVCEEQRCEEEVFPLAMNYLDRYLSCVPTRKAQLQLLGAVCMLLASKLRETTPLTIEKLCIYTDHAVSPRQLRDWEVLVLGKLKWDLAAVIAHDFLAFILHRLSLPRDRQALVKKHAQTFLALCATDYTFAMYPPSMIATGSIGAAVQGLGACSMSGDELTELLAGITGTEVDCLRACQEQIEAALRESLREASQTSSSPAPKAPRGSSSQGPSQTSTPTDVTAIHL

SMILES | IC50 [1] [nM] | IC50 [2] [nM] | IC50 [3] [nM]
CCN1CCN(Cc2ccc(Nc3ncc(F)c(-c4cc(F)c5nc(C)n(C(C)C)c5c4)n3)nc2)CC1 [LY2835219, reference compound] | 200 |  | 
CCN1CCN(Cc2cnc(Nc3cc(-c4cc(F)c5nc(C)n(C(C)C)c5c4)c(F)cn3)nc2)CC1 [Compound 1, 5-((4-ethylpiperazin-1-yl)methyl)-N-(5-fluoro-4-(4-fluoro-1-isopropyl-2-methyl-1H-benzo[d]imidazol-6-yl)pyridin-2-yl)pyrimidin-2-amine] |  | 16 | 139
